From a compilation of properties of binary mixtures (doi:10.1016/j.molliq.2016.12.089)

Experiment: xn = mol fraction of the nth substance listed
Settings: 101 kPa

O + C[N+](C)(CCCS(=O)(=O)O)C1CCCCC1.Cc1ccc(S(=O)(=O)[O-])cc1
x2 = 0
Settings	viscosity [mPa·s]
308.15 K	0.7218
313.15 K	0.6564
318.15 K	0.6071
323.15 K	0.5538
328.15 K	0.5064

C[N+](C)(CCCS(=O)(=O)O)C1CCCCC1.Cc1ccc(S(=O)(=O)[O-])cc1 + O
viscosity [mPa·s]
Settings	303.15 K	308.15 K	313.15 K	318.15 K	323.15 K	328.15 K
x1 = 0.0106	1.404	1.257	–	–	0.9115	–
x1 = 0.0277	2.684	2.406	2.146	1.943	1.789	–
x1 = 0.0603	7.903	–	–	5.145	4.579	–
x1 = 0.1458	78.86	62.58	48.83	–	31.56	25.56
x1 = 1	–	–	32650	17830	10187	6293
